Earlier results on one compound are cited in patent US6174513A, “Stabilization of peptides and proteins for radiopharmaceutical use” (priority 1998, dated 2001).

In this data set the test system is somatostatin receptors in a variety of human tumors.

Regarding `C[C@@H](O)[C@@H]1NC(=O)[C@H](CCCCN)NC(=O)[C@@H](Cc2c[nH]c3ccccc23)NC(=O)[C@H](Cc2ccccc2)NC(=O)[C@@H](NC(=O)[C@H](N)Cc2ccccc2)CSSC[C@@H](C(=O)N[C@H](CO)[C@@H](C)O)NC1=O` [Octreotide], the “Binding affinity to somatostatin receptors” value is “very high binding affinity”.
